Data published in US20130123355A1, “Fatty acids and metal ions compositions and uses thereof” (priority 2011, published 2013).

Legend:
[1] = tested on: Sprague-Dawley rats; assay: Forced Swim Test; assay type: in vivo; conditions: diet
From the text: Sprague-Dawley rats are fed diet supplemented with Mg-DHA, Mg Citrate, or DHA. […] Various established parameters of antidepressant activity including reduced immobility time, increased swimming, and increased climbing behavior are quantitated to assess the antidepressant activity.
Sprague-Dawley rats are fed diet supplemented with Mg-DHA-LysoPC, Mg Citrate, or DHA-lysoPC. […] Various established parameters of antidepressant activity including reduced immobility time, increased swimming, and increased climbing behavior are quantitated to assess the antidepressant activity.
Sprague-Dawley rats are fed diet supplemented with Mg-EPA, Mg Citrate, or EPA. […] Various established parameters of antidepressant activity including reduced immobility time, increased swimming, and increased climbing behavior are quantitated to assess the antidepressant activity.
(§1) Sprague-Dawley rats are fed diet supplemented with Zn-DHA, Zinc gluconate, or DHA. On Zn-DHA or Zinc gluconate supplemented diet, rats consume about 1 mg/kg body weight/day of elemental zinc, on a feeding schedule so as to maintain 85% of its free-feeding weight. […] Various established parameters of antidepressant activity including reduced immobility time, increased swimming, and increased climbing behavior are quantitated to assess the antidepressant activity.
as §1, with “Zn-DHA-lysoPC, zinc” for “Zn-DHA, Zinc”, “Zn-DHA-lysoPC” for “Zn-DHA”, “zinc” for “Zinc”
as §1, with “Zn-EPA, zinc” for “Zn-DHA, Zinc”, “EPA.” for “DHA.”, “Zn-EPA” for “Zn-DHA”, “zinc” for “Zinc”
Sprague-Dawley rats are fed diet supplemented with Li-DHA, lithium carbonate, or DHA. […] Various established parameters of antidepressant activity including reduced immobility time, increased swimming, and increased climbing behavior are quantitated to assess the antidepressant activity.
Sprague-Dawley rats are fed diet supplemented with Li-DHA-lysoPC, lithium carbonate, or DHA. […] Various established parameters of antidepressant activity including reduced immobility time, increased swimming, and increased climbing behavior are quantitated to assess the antidepressant activity.
Sprague-Dawley rats are fed diet supplemented with Li-EPA, lithium carbonate, or EPA. […] Various established parameters of antidepressant activity including reduced immobility time, increased swimming, and increased climbing behavior are quantitated to assess the antidepressant activity.

[2] = tested on: Patients presenting symptoms of migraine; assay: migraine pain relief on visual analog scale (VAS); assay type: in vivo, human; conditions: reviewed after 4 hours
Experimental: Patients presenting symptoms of migraine are prescribed Zn-DHA or zinc gluconate capsules formulated to provide a daily dosage of 30 mg of elemental zinc. The symptoms of migraine are reviewed after 4 hours. […] For each group of patients, Excedrin is prescribed as rescue medicine.
Patients presenting symptoms of migraine are prescribed Zn-DHA-LysoPC or zinc gluconate formulated to provide a daily dosage of 30 mg of elemental zinc. The symptoms of migraine are reviewed after 4 hours. […] For each group of patients, Excedrin is prescribed as rescue medicine.
Patients presenting symptoms of migraine are prescribed Zn-EPA capsules formulated to provide a daily dosage of 30 mg of elemental Zn. The symptoms of migraine are reviewed after 4 hours. […] For each group of patients, Excedrin is prescribed as rescue medicine.

[3] = tested on: rats; assay: tail flick test; assay type: in vivo; conditions: diet
Experimental: On Zn-EPA or zinc gluconate supplemented diet, rats consume about 1 mg/kg body weight/day of elemental zinc, on a feeding schedule so as to maintain 85% of its free-feeding weight.

[4] = tested on: Patients presenting early symptoms of stroke; assay: Stroke Rehabilitation Assessment of Movement (STREAM); assay type: in vivo, human; conditions: with standard of care
Experimental: Patients presenting early symptoms of stroke, in addition to being provided standard of care for stroke, are prescribed Mg-DHA or Mg Citrate capsules formulated to provide a daily dose of 150 mg of elemental magnesium or DHA capsules for two weeks when recovery from stroke is assessed.
Patients presenting early symptoms of stroke, in addition to being provided standard of care for stroke, are prescribed Mg-DHA-LysoPC or Mg Citrate capsules prepared and formulated to provide 150 mg of elemental magnesium, or DHA-LysoPC capsules for two weeks when recovery is assessed.
Patients presenting early symptoms of stroke, in addition to being provided standard of care for stroke, are prescribed Mg-EPA or Mg Citrate capsules formulated to provide 150 mg of elemental magnesium, or EPA capsules for two weeks when recovery from stroke is assessed.
Patients presenting early symptoms of stroke, in addition to being provided standard of care for stroke, are prescribed either Zn-DHA or zinc gluconate capsules formulated to provide a daily dosage of 30 mg of elemental Zn, or DHA capsules for two weeks when recovery from stroke is assessed.
Patients presenting early symptoms of stroke, in addition to being provided standard of care for stroke, are prescribed either Zn-DHA-LysoPC or zinc gluconate capsules that provide a daily dosage of 30 mg of elemental Zn, or DHA-LysoPC capsules for two weeks when recovery is assessed.
Patients presenting early symptoms of stroke, in addition to being provided standard of care for stroke, are prescribed either Zn-EPA or zinc gluconate capsules formulated to provide a daily dosage of 30 mg of elemental Zn, or EPA capsules for two weeks when recovery from stroke is assessed.

[5] = about 50 mg/kg/day elemental Mg, compared with the fatty acid alone or Mg Citrate
[6] = 150 mg elemental magnesium daily, compared with the fatty acid alone or Mg Citrate
[7] = about 50 mg/Kg/day elemental Mg, days 0, 7, 14, 21, compared with Mg Citrate or the fatty acid alone
[8] = 150 mg elemental magnesium daily for two weeks
[9] = about 1 mg/kg body weight/day elemental zinc, compared with the fatty acid alone or zinc gluconate
[10] = 30 mg elemental zinc daily, compared with the fatty acid alone or zinc gluconate
[11] = about 1 mg/kg body weight/day elemental zinc, days 0, 7, 14, 21, compared with zinc gluconate or the fatty acid alone
[12] = 30 mg elemental Zn daily for two weeks, compared with the fatty acid alone or zinc gluconate

Structure (SMILES)	immobility time [1, 5]	swimming and climbing behavior [1, 5]	pain relief on a visual analog scale (VAS) [2, 6]	latency of tail flick reflex [3, 7]	STREAM scores, recovery from stroke [4, 8]	immobility time [1, 9]	swimming and climbing behavior [1, 9]	pain relief on a visual analog scale (VAS) [2, 10]	latency of tail flick reflex [3, 11]	STREAM scores, recovery from stroke [4, 12]
CC/C=C\C/C=C\C/C=C\C/C=C\C/C=C\C/C=C\CCC(=O)[O-].CC/C=C\C/C=C\C/C=C\C/C=C\C/C=C\C/C=C\CCC(=O)[O-].[Mg+2] [Mg-DHA]	reduction	significant increase	significant pain relief	Statistically significant increased latency	statistically significant improvement					
CC/C=C\C/C=C\C/C=C\C/C=C\C/C=C\C/C=C\CCC(=O)[O-].CC/C=C\C/C=C\C/C=C\C/C=C\C/C=C\C/C=C\CCC(=O)[O-].[Zn+2] [Zn-DHA]						reduction	significant increase	significant pain relief	Statistically significant increased latency	statistically significant improvement
CC/C=C\C/C=C\C/C=C\C/C=C\C/C=C\CCCC(=O)[O-].CC/C=C\C/C=C\C/C=C\C/C=C\C/C=C\CCCC(=O)[O-].[Zn+2] [Zn-EPA]						reduction	significant increase	significant pain relief	Statistically significant increased latency	statistically significant improvement
CC/C=C\C/C=C\C/C=C\C/C=C\C/C=C\CCCC(=O)[O-].CC/C=C\C/C=C\C/C=C\C/C=C\C/C=C\CCCC(=O)[O-].[Mg+2] [Mg-EPA]	reduction	significant increase	significant pain relief	Statistically significant increased latency	statistically significant improvement					
